Assay results published in patent US8722897B2, “Metal complexes of thiourea and derivatives as metal delivering anti-cancer and anti-inflammatory agents” (priority 2010, dated 2014).

Legend:
[1] = molecular target: T1, Glutathione reductase (GR) (Homo sapiens, UniProt P00390); experiment: Cellular glutathione reductase activity of treated HeLa cells; type: cell-based; conditions: one-hour treatment
T1 construct: endogenous in cells; host or cells: HeLa
T1 sequence (P00390 44-522): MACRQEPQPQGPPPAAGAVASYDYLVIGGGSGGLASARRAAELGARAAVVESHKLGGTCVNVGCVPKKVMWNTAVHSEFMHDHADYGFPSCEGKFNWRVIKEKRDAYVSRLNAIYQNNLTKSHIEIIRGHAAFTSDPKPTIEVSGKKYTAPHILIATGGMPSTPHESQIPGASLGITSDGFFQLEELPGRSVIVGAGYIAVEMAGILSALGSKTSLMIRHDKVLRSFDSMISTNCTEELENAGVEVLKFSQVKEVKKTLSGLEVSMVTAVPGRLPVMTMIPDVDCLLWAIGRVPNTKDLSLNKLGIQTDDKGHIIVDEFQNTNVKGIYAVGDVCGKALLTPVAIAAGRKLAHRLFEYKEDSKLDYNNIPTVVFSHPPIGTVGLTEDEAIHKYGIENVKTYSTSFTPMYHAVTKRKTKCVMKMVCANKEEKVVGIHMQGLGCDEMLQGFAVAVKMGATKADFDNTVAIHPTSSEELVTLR
Experimental: Cells were seeded at 2×10^5/well in 6-well plates and incubated for 24 hours. The metal thiourea compounds (10^−9 to 10^−4 M) were serially diluted and added to the cells (final DMSO concentrations≦1%). After an one-hour incubation, cells were washed thrice with phosphate buffered saline and 100 μL ice-cold lysis buffer (50 mM phosphate buffer, pH 7.4, 1 mM EDTA, 0.1% Triton-X 100) were added to the cell layer. Cell lysis was carried on ice for 5 minutes and the cell lysates were collected and stored at −80° C. or assayed immediately.
Cell lysates (10 μg proteins) were added to a mixture containing 100 mM phosphate, pH 7.4, 1 mM EDTA, 1 mM GSSG and 0.2 mM NADPH. Reaction was initiated by adding DTNB (3 mM final) and the increases in O.D.412 nm were measured for 10 min. GR activities were determined by subtracting the increases in O.D.412 nm in the absence of GSSG.

NADPH-reduced TrxR1 = molecular target: T2, NADPH-reduced TrxR1 (Rattus norvegicus, UniProt O89049); experiment: BIAM labeling of cysteine and selenocysteine residues of TrxR1; type: biochemical; conditions: TrxR 0.1 μM, compound 4 μM, pH 8.5 and pH 6.5
T2 sequence (O89049 1-499): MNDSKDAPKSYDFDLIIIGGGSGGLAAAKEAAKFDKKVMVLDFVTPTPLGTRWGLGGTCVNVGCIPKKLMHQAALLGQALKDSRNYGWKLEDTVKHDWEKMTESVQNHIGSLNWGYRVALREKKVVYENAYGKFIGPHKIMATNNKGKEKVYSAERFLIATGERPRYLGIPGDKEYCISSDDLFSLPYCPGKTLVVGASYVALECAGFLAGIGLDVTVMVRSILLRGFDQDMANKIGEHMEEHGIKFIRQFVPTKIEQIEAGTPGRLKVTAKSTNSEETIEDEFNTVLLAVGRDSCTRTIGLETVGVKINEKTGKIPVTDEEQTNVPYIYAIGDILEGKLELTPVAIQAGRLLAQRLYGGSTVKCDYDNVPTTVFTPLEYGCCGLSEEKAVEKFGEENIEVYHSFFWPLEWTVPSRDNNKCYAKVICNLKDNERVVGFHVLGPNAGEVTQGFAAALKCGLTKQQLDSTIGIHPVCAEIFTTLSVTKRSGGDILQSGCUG
Text: The reduced TrxR has free —SH (Cys496) and —SeH (Sec497) groups at the C-terminal active site, making it vulnerable to be attacked by Au(I). ^20, 22, 23 These redox active sites can be probed by biotinylated iodoacetamide (BIAM), which alkylates the free —SH and —SeH groups; and the resulting adduct can be detected by western blot experiment using streptavidin-linked horseradish peroxidase (FIG. 10). ^26, 27 It has been shown that these residues can be selectively alkylated by BIAM by adjusting the pH. At pH 8.5, both —SH and —SeH are alkylated. At pH 6.5, only the —SeH is alkylated owing to the low pKa value for selenocysteine, and thus a weaker streptavidin signal was obtained in which case. […] It is highly likely that the formation of the tight enzyme-inhibitor complex (EI*) involves covalent modification of the redox active selenocysteine and cysteine residue via the Au(I) complex. ^28
NADPH-reduced TrxR1 (0.1 μM) and 1 (4 μM) were incubated in reaction buffer (100 mM phosphate buffer, pH 7.4, 1 mM EDTA) at room temperature for 1 h. […] The separated proteins were transferred to nitrocellulose membrane and the BIAM labeled proteins were detected with horseradish peroxidase conjugated streptavidin and enhanced chemiluminescence detection.

[2] = Cytotoxicity assay (MTT), NCI-H460; conditions: human, NCI-H460 cells
Experimental: (§1) Cells were seeded in a 96-well flat-bottomed microplate at 20,000 cells/well in 150 μL of growth medium solution. The compounds were dissolved in dimethyl sulfoxide. Serial dilution of each complex was added to each well with final concentration of DMSO≦1%. The microplate was incubated at 37° C., 5% CO2, 95% air in a humidified incubator for 72 h. After incubation, 10 μL MTT reagent (5 mg/mL) was added to each well. The microplate was re-incubated at 37° C. in 5% CO2 for 4 h. Solubilization solution (10% SDS in 0.01 M HCl) (100 μL) was added to each well. The microplate was left in an incubator for 24 h. Absorbances at 550 nm were measured by a microplate reader.

[3] = Cytotoxicity assay (MTT), HepG2; conditions: human, HepG2 cells
Experimental: as §1

[4] = Cytotoxicity assay (MTT), HeLa; conditions: human, HeLa cells
Experimental: Cells were seeded in a 96-well flat-bottomed microplate at 20,000 cells/well in 150 μL of growth medium solution. The compounds were dissolved in dimethyl sulfoxide. Serial dilution of each complex was added to each well with final concentration of DMSO≦1%. […] After incubation, 10 μL MTT reagent (5 mg/mL) was added to each well. The microplate was re-incubated at 37° C. in 5% CO2 for 4 h. Solubilization solution (10% SDS in 0.01 M HCl) (100 μL) was added to each well. The microplate was left in an incubator for 24 h. Absorbances at 550 nm were measured by a microplate reader.

Recombinant rat TrxR1 = molecular target: T3, Recombinant rat TrxR1 (Rattus norvegicus, UniProt O89049); experiment: biochemical; conditions: preformed EI*
T3 construct: purchased ICMO Corp, Sweden (so in the source)
T3 sequence (O89049 1-499): T2 sequence (O89049 1-499)
Experimental: 1 nM Recombinant rat TrxR1 (ICMO Corp, Sweden) was reduced with 0.2 mM NADPH and then incubated with 0.3-10 nM of 1 for 30 min in a buffer of 100 mM phosphate buffer, pH 7.4 and 1 mM EDTA. The residual activities were measured using 0.75, 1.5 or 3 mM DTNB (FIG. 7A). The data were fit into Eq. 1 using GraphPad Prism 3.0 software. vs/vo=(Et−Ki−It+((It+Ki′−Et)^2+(4KiEt))^1/2)/(2Et) (1) Eq. 1 describes the rate law of tight-binding inhibition in which case the inhibitor concentration is substantially depleted owing to formation of enzyme-inhibitor complex. In this equation, vo is the observed velocity in the absence of inhibitor, vs is the steady-state velocity in the presence of inhibitor, Et is the total enzyme concentration, and I is the inhibitor concentration. […] Ki=Ki*(1+S/Km) (2) Determination of Ki by Progress Curve Analysis ^35, 36 (FIG. 8)

[5] = Cytotoxicity assay (MTT), SUNE1; conditions: human, SUNE1 cells
Experimental: as §1

COc1ccc(N2CCN(c3ccc(OC)cc3)C2=[S+][Au-][S+]=C2N(c3ccc(OC)cc3)CCN2c2ccc(OC)cc2)cc1 [complex 1, [Au(TU)2]Cl]
effect on cellular GR activity [1]: not affected | BIAM labeling of TrxR (NADPH-reduced TrxR1): inhibited | IC50 at 72 h [2]: 3.72 ± 0.3 µM | IC50 at 72 h [3]: 17.4 ± 1 µM | IC50 at 72 h [4]: 14.6 ± 0.7 µM | Ki (Recombinant rat TrxR1; apparent inhibitory constant (Ki), 1 nM TrxR1, 30 min preincubation, steady state rate law): 0.67 nM | Ki (Recombinant rat TrxR1; inhibitory constant Ki*, corrected for substrate competition, Km 0.2 mM): 0.036 nM | IC50 at 72 h [5]: 10.8 ± 0.2 µM
